Values of other authors, collected in patent US20060211721A1, “Nutraceutical formulation of a cognitive enhancement system” (priority 2005, published 2006).

Conditions: background statement

Question: Which oral bioavailability does the source give for `C/C=C1\[C@H]2C=C(C)C[C@]1(N)c1ccc(=O)[nH]c1C2` [huperzine, Huperzine A] here?
Answer: high oral bioavailability

Question: And the “penetration through the blood brain barrier” value?
Answer: good penetration through the blood brain barrier
